# Values quoted from earlier work, collected in US7132111B2, “Odorless formulation for treating mucosal discontinuities” (Epien Medical, Inc., priority 2003, dated 2006).
# System: aphthous ulcers
# Settings: applied locally, three times a day
compound,measurement,setting,value
CN(C)[C@@H]1C(O)=C(C(N)=O)C(=O)[C@@]2(O)C(O)=C3C(=O)c4c(O)ccc(Cl)c4[C@@](C)(O)[C@H]3C[C@@H]12 [Aureomycin],duration of analgesic effect,,one half to two
same,duration of the ulcers with treatment,reduced from about 10 days,~5 days
